In ChEMBL document CHEMBL3853353, “Identification and optimization of a new series of anti-tubercular quinazolinones” (Bioorg Med Chem Lett, 2016):
≈ marks a conversion by molar mass, not a printed value. Calls of active or inactive are those of the source. The rule behind the calls is not given here.

Experiments:
[1] = tested on: Mycobacterium tuberculosis; assay: (§1) Antimycobacterial activity against Mycobacterium tuberculosis H37Rv infected in Balb/c mouse assessed as bacterial burden in lungs at 10 mg/kg, po administered daily through gavage for 2 weeks starting on day 2 post infection measured on day 12 post infection (reference value: 6.4 log10CFU); format: functional, Lung
[2] = tested on: Mycobacterium tuberculosis; assay: (§2) Antimycobacterial activity against Mycobacterium tuberculosis H37Rv infected in Balb/c mouse assessed as bacterial burden in lungs at 10 mg/kg, po administered daily through gavage starting on day 2 post infection for 4 days per week for 2 weeks measured on day 12 post infection (reference value: 7.8 log10CFU); format: functional, Lung
Cytochrome P450 3A4 [3] = molecular target: T1, Cytochrome P450 3A4 (Homo sapiens, UniProt P08684); assay: Inhibition of CYP3A4 in human liver microsomes assessed as 6-beta-hydroxytestosterone metabolite formation using testosterone as substrate incubated for 30 mins by HPLC-MS method
[4] = Lipophilicity, log P of compound; details: octanol/water
[5] = Bioavailability in Swiss mouse at 3 mg/kg, iv administered as single bolus dose in NMP/Solutol HS15/PBS solution after 24 hrs; format: ADME, organism-based; details: in vivo
[6] = Aqueous equilibrium solubility of compound in pH 7.4 solution at 20 degC; details: aqueous pH 7.4 solution
[7] = Protein binding in Swiss mouse plasma at 1 to 10 uM after 4 hrs by LC-MS/MS analysis; format: ADME, cell-free; details: read-out: PPB (converted)
[8] = Permeability in human Caco2 cells; details: caco-2
[9] = tested on: Mycobacterium tuberculosis; assay: Antimycobacterial activity against GFP-tagged Mycobacterium tuberculosis H37Rv infected in mouse RAW264.7 cells incubated for 4 days by Mask blue/Hoechst/FITC staining based fluorescence microscopic analysis; format: functional; details: 96 h
Cytochrome P450 3A4 [10] = molecular target: T1, Cytochrome P450 3A4; assay: Inhibition of CYP3A4 in human liver microsomes assessed as 1'-hydroxymidazolam metabolite formation using midazolam as substrate incubated for 10 mins by HPLC-MS method
[11] = Time at which plasma concentration stays above invitro MIC80 in presence of mouse serum in Balb/c mouse infected with Mycobacterium tuberculosis H37Rv at 100 mg/kg, po administered through gavage as lipidic/water formulation; format: ADME, organism-based; details: in vivo
[12] = tested on: Mycobacterium tuberculosis; assay: Antimycobacterial activity against Mycobacterium tuberculosis H37Rv infected in po dosed Balb/c mouse assessed as log10 reduction in CFU in lungs administered daily through gavage starting on day 2 post infection for 4 days per week for 2 weeks as lipidic/water formulation measured on day 12 post infection; format: functional; details: read-out: MED
[13] = tested on: Mycobacterium tuberculosis; assay: as §2, with “at 600” for “at 10”, “weeks as lipidic/water formulation” for “weeks”, “value: 7.2” for “value: 7.8”; format: functional, Lung
[14] = AUC in Balb/c mouse plasma infected with Mycobacterium tuberculosis H37Rv at 10 to 100 mg/kg, po administered through gavage as lipidic/water formulation; format: ADME, organism-based
[15] = tested on: Mycobacterium tuberculosis; assay: Antimycobacterial activity against Mycobacterium tuberculosis H37Rv incubated for 5 days by Bactiter-Glo assay; format: functional; details: 120 h
[16] = Protein binding in human plasma at 1 to 10 uM after 4 hrs by LC-MS/MS analysis; format: ADME, cell-free; details: read-out: PPB (converted)
[17] = Aqueous equilibrium solubility of compound in pH 1 solution at 20 degC; details: aqueous pH 1 solution
[18] = tested on: Mycobacterium tuberculosis; assay: Ratio of MIC80 for Mycobacterium tuberculosis H37Rv in presence of 25% human serum to MIC80 for Mycobacterium tuberculosis H37Rv; format: functional
[19] = tested on: Mycobacterium tuberculosis; assay: as §2, with “at 100” for “at 10”, “weeks as vitamin E/water formulation” for “weeks”, “value: 7.6” for “value: 7.8”; format: functional, Lung
[20] = tested on: Mycobacterium tuberculosis; assay: Antimycobacterial activity against Mycobacterium tuberculosis H37Rv incubated for 5 days in presence of 25% human serum by Bactiter-Glo assay; format: functional; details: 120 h
[21] = tested on: Mycobacterium tuberculosis; assay: Antimycobacterial activity against Mycobacterium tuberculosis H37Rv incubated for 5 days in presence of 25% mouse serum by Bactiter-Glo assay; format: functional; details: 120 h
[22] = Cytotoxicity against human HepG2 cells assessed as reduction in cell viability after 40 hrs by Celltiter-Glo assay
[23] = tested on: Mycobacterium tuberculosis; assay: as §2, with “at 30” for “at 10”, “weeks as vitamin E/water formulation” for “weeks”, “value: 7.6” for “value: 7.8”; format: functional, Lung
[24] = tested on: Mycobacterium tuberculosis; assay: as §2, with “at 300” for “at 10”, “weeks as vitamin E/water formulation” for “weeks”, “value: 7.6” for “value: 7.8”; format: functional, Lung
[25] = Time at which lung concentration stays above invitro MIC80 in presence of mouse serum in Balb/c mouse infected with Mycobacterium tuberculosis H37Rv at 100 mg/kg, po administered through gavage as lipidic/water formulation; format: ADME, organism-based; details: in vivo
[26] = Time at which plasma concentration stays above invitro MIC80 in presence of mouse serum Balb/c mouse infected with Mycobacterium tuberculosis H37Rv at 300 mg/kg, po administered through gavage as 5% soluplus/acetate buffer formulation; format: ADME, organism-based; details: in vivo
[27] = AUC in Balb/c mouse lungs infected with Mycobacterium tuberculosis H37Rv at 300 mg/kg, po administered through gavage as 5% soluplus/acetate buffer formulation; format: ADME, organism-based; details: lung
[28] = tested on: Mycobacterium tuberculosis; assay: as §1, with “lungs at 300 mg/kg, po” for “lungs at 10 mg/kg, po”, “post infection as 5% soluplus/acetate buffer formulation measured on” for “post infection measured on”; format: functional, Lung
[29] = tested on: Mycobacterium tuberculosis; assay: as §1, with “lungs at 30 mg/kg, po” for “lungs at 10 mg/kg, po”, “post infection as 5% soluplus/acetate buffer formulation measured on” for “post infection measured on”; format: functional, Lung
[30] = tested on: Mycobacterium tuberculosis; assay: as §1, with “lungs at 100 mg/kg, po” for “lungs at 10 mg/kg, po”, “post infection as 5% soluplus/acetate buffer formulation measured on” for “post infection measured on”; format: functional, Lung
[31] = tested on: Mycobacterium tuberculosis; assay: as §1, with “post infection as 5% soluplus/acetate buffer formulation measured on” for “post infection measured on”; format: functional, Lung
[32] = AUC in Balb/c mouse plasma infected with Mycobacterium tuberculosis H37Rv at 300 mg/kg, po administered through gavage as 5% soluplus/acetate buffer formulation; format: ADME, organism-based
[33] = tested on: Mycobacterium tuberculosis; assay: Antimycobacterial activity against Mycobacterium tuberculosis H37Rv infected in po dosed Balb/c mouse assessed as bacterial burden in lungs administered daily through gavage starting on day 2 post infection for 4 days per week for 2 weeks each 4 days dosing followed by 2 days compound washout measured on day 12 post infection (reference value: 8 log10CFU); format: functional, Lung
[34] = Half life in Balb/c mouse infected with Mycobacterium tuberculosis H37Rv at 100 mg/kg, po administered through gavage as VitE/PEG200/HPC formulation; format: ADME, organism-based; details: in vivo
[35] = AUC in Balb/c mouse plasma infected with Mycobacterium tuberculosis H37Rv at 100 mg/kg, po administered through gavage as VitE/PEG200/HPC formulation; format: ADME, organism-based
[36] = tested on: Mycobacterium tuberculosis; assay: as §2, with “at 30” for “at 10”, “weeks as VitE/PEG200/HPC formulation” for “weeks”; format: functional, Lung
[37] = tested on: Mycobacterium tuberculosis; assay: as §2, with “at 100” for “at 10”, “weeks as VitE/PEG200/HPC formulation” for “weeks”; format: functional, Lung
[38] = Ratio of drug level in Mycobacterium tuberculosis H37Rv infected Balb/c mouse lung to plasma at 100 mg/kg, po administered through gavage as VitE/PEG200/HPC formulation; details: other tissue
[39] = tested on: Mycobacterium tuberculosis; assay: as §2, with “weeks as VitE/PEG200/HPC formulation” for “weeks”; format: functional, Lung
Mus musculus = assay: Toxicity in Balb/c mouse infected with Mycobacterium tuberculosis H37Rv at 300 mg/kg, po administered through gavage as single dose; format: organism-based; details: in vivo
[40] = tested on: Mycobacterium tuberculosis; assay: Growth inhibition of Mycobacterium tuberculosis H37Rv at 10 uM incubated for 5 days by Bactiter-Glo assay relative to control; format: functional; details: 120 h, read-out: GI
[41] = Drug metabolism in human hepatocytes assessed as demethylation of methoxy group/hydroxylation of distal aryl ring; format: ADME, cell-based, Hepatocyte
[42] = Selectivity index, ratio of IC50 for human HepG2 cells to MIC80 for Mycobacterium tuberculosis H37Rv; format: toxicity, cell-based; details: read-out: Selectivity Index
Salmonella typhimurium = assay: Genotoxicity in Salmonella typhimurium by Ames test; format: toxicity, organism-based; details: salmonella enterica subsp. enterica serovar typhimurium
hERG (KCNH2) = hERG (KCNH2) (Homo sapiens, UniProt Q12809); assay: Inhibition of human ERG at 10 uM relative to control
[43] = tested on: Mycobacterium tuberculosis; assay: Bacteriostatic activity against Mycobacterium tuberculosis H37Rv incubated for 5 days by Bactiter-Glo assay; format: functional
[44] = Drug metabolism in human liver microsomes assessed as CYP450/FMO-mediated demethylation of methoxy group/hydroxylation of distal aryl ring at 5 uM after 20 mins in presence of NADPH; format: ADME

T1 sequence (P08684 whole entry): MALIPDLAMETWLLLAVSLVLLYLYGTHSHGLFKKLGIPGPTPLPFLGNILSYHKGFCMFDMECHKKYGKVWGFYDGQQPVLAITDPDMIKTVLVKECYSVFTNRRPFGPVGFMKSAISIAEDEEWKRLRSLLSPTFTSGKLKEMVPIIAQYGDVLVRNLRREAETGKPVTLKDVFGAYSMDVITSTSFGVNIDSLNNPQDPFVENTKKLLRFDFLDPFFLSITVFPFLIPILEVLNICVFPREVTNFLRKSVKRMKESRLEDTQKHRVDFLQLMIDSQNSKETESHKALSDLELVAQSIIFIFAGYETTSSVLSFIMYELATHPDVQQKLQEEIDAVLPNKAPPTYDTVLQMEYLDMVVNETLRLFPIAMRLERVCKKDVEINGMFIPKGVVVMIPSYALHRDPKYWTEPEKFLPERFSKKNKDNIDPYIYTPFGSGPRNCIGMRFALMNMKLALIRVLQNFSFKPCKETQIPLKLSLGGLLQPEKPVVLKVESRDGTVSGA
Chain of hERG (KCNH2) (Q12809 whole entry): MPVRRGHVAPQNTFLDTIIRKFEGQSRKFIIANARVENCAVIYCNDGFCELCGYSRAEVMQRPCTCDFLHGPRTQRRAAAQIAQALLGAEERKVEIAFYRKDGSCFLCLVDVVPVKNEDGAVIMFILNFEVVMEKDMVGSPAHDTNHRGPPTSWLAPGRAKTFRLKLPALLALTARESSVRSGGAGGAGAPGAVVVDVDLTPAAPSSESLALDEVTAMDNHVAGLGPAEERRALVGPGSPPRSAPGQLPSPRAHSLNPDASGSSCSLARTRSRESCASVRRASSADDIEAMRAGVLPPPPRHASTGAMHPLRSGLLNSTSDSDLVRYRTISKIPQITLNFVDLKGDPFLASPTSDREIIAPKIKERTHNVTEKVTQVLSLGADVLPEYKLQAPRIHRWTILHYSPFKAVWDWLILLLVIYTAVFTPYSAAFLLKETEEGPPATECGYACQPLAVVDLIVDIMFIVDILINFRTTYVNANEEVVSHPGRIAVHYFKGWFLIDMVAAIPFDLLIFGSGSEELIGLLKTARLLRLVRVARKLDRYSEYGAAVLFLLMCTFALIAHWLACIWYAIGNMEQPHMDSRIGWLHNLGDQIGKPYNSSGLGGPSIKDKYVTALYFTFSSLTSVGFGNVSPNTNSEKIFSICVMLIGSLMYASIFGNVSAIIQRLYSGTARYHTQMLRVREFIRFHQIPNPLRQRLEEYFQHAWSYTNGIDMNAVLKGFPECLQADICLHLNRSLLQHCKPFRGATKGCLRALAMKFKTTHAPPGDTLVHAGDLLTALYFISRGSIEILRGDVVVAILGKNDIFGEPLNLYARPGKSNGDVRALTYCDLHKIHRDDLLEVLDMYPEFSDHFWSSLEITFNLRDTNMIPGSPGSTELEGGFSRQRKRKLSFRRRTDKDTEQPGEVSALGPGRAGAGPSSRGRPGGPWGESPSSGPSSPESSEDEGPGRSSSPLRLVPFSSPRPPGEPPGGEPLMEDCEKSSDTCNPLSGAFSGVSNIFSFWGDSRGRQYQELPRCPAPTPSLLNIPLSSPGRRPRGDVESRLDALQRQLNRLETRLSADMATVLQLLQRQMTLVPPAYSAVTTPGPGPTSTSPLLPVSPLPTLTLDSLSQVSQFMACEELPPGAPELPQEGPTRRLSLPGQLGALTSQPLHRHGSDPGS

For `CO[C@H]1/C=C/O[C@@]2(C)Oc3c(C)c(O)c4c(O)c(c(/C=N/N5CCN(C)CC5)c(O)c4c3C2=O)NC(=O)/C(C)=C\C=C\[C@H](C)[C@H](O)[C@@H](C)[C@@H](O)[C@@H](C)[C@H](OC(C)=O)[C@@H]1C` [RIFAMPIN], the Activity [1] was 3.9 log10CFU and the Activity [2] was 5.2.

In the case of `Cn1c(NCCc2ccc(Oc3ccc(Cl)cc3)cc2)nc2cc(Cl)ccc2c1=O`, the IC50 (Cytochrome P450 3A4 [3]) is reported as 29 µM, the logP [4] is reported as 5.66 and the bioavailability [5] is reported as 90%. The solubility thermodynamic [6] was < 1 µg/mL, the fraction unbound at 4 h [7] was 0.001 and the permeability [8] was “Permeable”. The MIC80 [9] was 0.133 µM (≈ 0.0586 µg/mL), the IC50 (Cytochrome P450 3A4 [10]) was 14 µM and the Time [11] was > 96 h. The minimal effective dose [12] was 600 mg/kg, the Activity [13] was 6.3 log10CFU and the AUC [14] was 21000 ng·h/mL. For the same molecule, the MIC80 [15] was 0.036 µM (≈ 0.0159 µg/mL), the fraction unbound at 4 h [16] was 0.001 and the solubility thermodynamic [17] was < 1 µg/mL. For the same molecule, the Ratio [18] was 8, the Activity [19] was 7.1 log10CFU and the MIC80 [20] was 1.9 µM. It also gave an MIC80 [21] of 0.42 µM, an IC50 at 40 h ([22]; HepG2 cells) of 10.9 µM and an Activity [23] of 7.5 log10CFU. The Activity [24] was 7 log10CFU and the Time [25] was > 96 h.

For `Cn1c(NCCc2ccc(-c3ccc(F)cc3)cc2)nc2cc(Cl)ccc2c1=O.O=S(=O)(O)O`, the Time [26] was > 24 h, the AUC [27] was 980000 ng·h/mL and the Activity [28] was 4.9 log10CFU. The Activity [29] was 5.8 log10CFU, the Activity [30] was 5.5 log10CFU and the Activity [31] was 6.6 log10CFU. For the same molecule, the AUC [32] was 140000 ng·h/mL.

Work on `CC[C@@H](CO)NCCN[C@@H](CC)CO` [ETHAMBUTOL] yielded an Activity [33] of 7 log10CFU.

With `Cn1c(NCCc2ccc(-c3ccc(F)cc3)cc2)nc2cc(N)ccc2c1=O` the half-life [34] was 6 h, the fraction unbound at 4 h [7] was 0.002 and the AUC [35] was 29000 ng·h/mL. For the same molecule, the MIC80 [9] was 0.06 µM (≈ 0.0233 µg/mL), the MIC80 [15] was 0.01 µM (≈ 0.00388 µg/mL) and the Activity [36] was 7.1. The fraction unbound at 4 h [16] was 0.002, the Activity [37] was 7 and the MIC80 [20] was 0.01 µM. The MIC80 [21] was 0.007 µM, the Kp [38] was 4.5 and the IC50 at 40 h ([22]; hepg2) was > 30 µM. The Activity [39] was 7.4 and the Activity (Mus musculus) was “Toxic”.

In the case of `COc1ccc(CCNc2nc3cc(Cl)ccc3c(=O)n2C)cc1`, the IC50 (Cytochrome P450 3A4 [3]) is reported as 4.3 µM, the logP [4] is reported as 4.08 and the solubility thermodynamic [6] is reported as ≤ 1 µg/mL. The inhibition of growth at 10 µM [40] was > 50%, the permeability [8] was “Permeable” and the Drug metabolism [41] was “Metabolite_Detected”. For the same molecule, the MIC80 [9] was 0.163 µM (≈ 0.056 µg/mL), the IC50 (Cytochrome P450 3A4 [10]) was < 1 µM and the selectivity ratio [42] was > 10. The MIC80 [15] was 0.038 µM (≈ 0.0131 µg/mL), the solubility thermodynamic [17] was 11 µg/mL (≈ 32 µM) and the Activity (Salmonella typhimurium) was “Non-Toxic”. The Ratio [18] was >10, the inhibition at 10 µM (hERG (KCNH2)) was 35% and the MIC80 [20] was 0.43 µM. The Activity [43] was “Active”, the MIC80 [21] was 0.013 µM and the IC50 at 40 h ([22]; HepG2 cells) was 13.4 µM. The Drug metabolism [44] was “Metabolite_Detected”.
